# Measurements reported in article PMC7082118 (Oncotarget, 2020).
# Read-outs that look alike come from different tables or passages of the source.
# Key:
# MV4-11 cells = assay: Cell viability assay (CellTiter-Glo 2.0); assay type: cell-based, human; details: Homo sapiens, 72 h; MV4-11, FLT3-ITD, 3 days
# Experimental: (§1) Human AML cell lines MV4-11, Kasumi-1, HL-60, and THP-1 were purchased from the American Type Culture Collection (Manassas, Virginia, USA). MV4-11 cells were cultured in Iscove’s Modified Dulbecco’s Medium (IMDM; Thermo Fisher Scientific, Waltham, Massachusetts, USA) supplemented with 10% (vol/vol) heat-inactivated fetal bovine serum (FBS; GE Healthcare Ltd, Chicago, Illinois, USA). […] HL-60 cells were cultured in IMDM supplemented with 20% (vol/vol) heat-inactivated FBS. […] Human AML cell lines, MOLM-13, MOLM-14, EOL-1, and OCI-AML3, were purchased from Leibniz-Institut DSMZ-Deutsche Sammlung von Mikroorganismen und Zellkulturen GmbH.
# (§2) The amount of ATP in viable cells was quantified as a luminescent signal using the CellTiter-Glo 2.0 Assay (Promega Corporation, Madison, Wisconsin, USA) and EnVision (PerkinElmer Inc, Waltham, Massachusetts, USA) to determine the number of viable cells according to the manufacturers’ instructions.
# Kasumi-1 cells = assay: Cell viability assay (CellTiter-Glo 2.0); assay type: cell-based, human; details: Homo sapiens, Kasumi 1, 72 h
# Experimental: as §1, §2
# MOLM-13 cells = assay: Cell viability assay (CellTiter-Glo 2.0); assay type: cell-based, human; details: Homo sapiens
# Experimental: as §1, §2
# HL-60 cells = assay: Cell viability assay (CellTiter-Glo 2.0); assay type: cell-based, human; details: Homo sapiens, 72 h; HL-60, wild-type FLT3, 3 days
# Experimental: as §1, §2
# OCI-AML3 cells = assay: Cell viability assay (CellTiter-Glo 2.0); assay type: cell-based, human; details: Homo sapiens, OCI-AML-3, 72 h; OCI-AML3, wild-type FLT3, 3 days; read-out: IC50, cell viability
# Experimental: as §1, §2
# EOL-1 cells = assay: Cell viability assay (CellTiter-Glo 2.0); assay type: cell-based, human; details: Homo sapiens, EOL1, 72 h; EOL-1, wild-type FLT3 with FIP1L-PDGFRα, 3 days
# Experimental: as §1, §2
# THP-1 cells = assay: Cell viability assay (CellTiter-Glo 2.0); assay type: cell-based, human; details: Homo sapiens, 72 h; THP-1, wild-type FLT3, 3 days; read-out: IC50, cell viability
# Experimental: as §1, §2
# MOLM-14 cells = assay: Cell viability assay (CellTiter-Glo 2.0); assay type: cell-based, human; details: Homo sapiens, MOLM-14, 72 h, 3 days, read-out: IC50, cell viability
# Experimental: as §1, §2
# MEK5 = target: T1, MEK5 (Homo sapiens, UniProt Q13163); assay: KINOMEscan kinase binding assay; details: kinase MEK5 (Entrez MAP2K5)
# T1 construct: purchased Eurofins (KINOMEscan service)
# Experimental: (§3) Kd values were calculated from duplicate 11-point dose-response curves.
# (§4) KINOMEscan kinase binding assays were performed at a Eurofins laboratory as previously described.
# PDGFRβ = target: T2, PDGFRβ (Homo sapiens, UniProt P09619); assay: KINOMEscan kinase binding assay; details: kinase PDGFRB (PDGFRB)
# T2 construct: purchased Eurofins (KINOMEscan service)
# T2 sequence (P09619 33-1106): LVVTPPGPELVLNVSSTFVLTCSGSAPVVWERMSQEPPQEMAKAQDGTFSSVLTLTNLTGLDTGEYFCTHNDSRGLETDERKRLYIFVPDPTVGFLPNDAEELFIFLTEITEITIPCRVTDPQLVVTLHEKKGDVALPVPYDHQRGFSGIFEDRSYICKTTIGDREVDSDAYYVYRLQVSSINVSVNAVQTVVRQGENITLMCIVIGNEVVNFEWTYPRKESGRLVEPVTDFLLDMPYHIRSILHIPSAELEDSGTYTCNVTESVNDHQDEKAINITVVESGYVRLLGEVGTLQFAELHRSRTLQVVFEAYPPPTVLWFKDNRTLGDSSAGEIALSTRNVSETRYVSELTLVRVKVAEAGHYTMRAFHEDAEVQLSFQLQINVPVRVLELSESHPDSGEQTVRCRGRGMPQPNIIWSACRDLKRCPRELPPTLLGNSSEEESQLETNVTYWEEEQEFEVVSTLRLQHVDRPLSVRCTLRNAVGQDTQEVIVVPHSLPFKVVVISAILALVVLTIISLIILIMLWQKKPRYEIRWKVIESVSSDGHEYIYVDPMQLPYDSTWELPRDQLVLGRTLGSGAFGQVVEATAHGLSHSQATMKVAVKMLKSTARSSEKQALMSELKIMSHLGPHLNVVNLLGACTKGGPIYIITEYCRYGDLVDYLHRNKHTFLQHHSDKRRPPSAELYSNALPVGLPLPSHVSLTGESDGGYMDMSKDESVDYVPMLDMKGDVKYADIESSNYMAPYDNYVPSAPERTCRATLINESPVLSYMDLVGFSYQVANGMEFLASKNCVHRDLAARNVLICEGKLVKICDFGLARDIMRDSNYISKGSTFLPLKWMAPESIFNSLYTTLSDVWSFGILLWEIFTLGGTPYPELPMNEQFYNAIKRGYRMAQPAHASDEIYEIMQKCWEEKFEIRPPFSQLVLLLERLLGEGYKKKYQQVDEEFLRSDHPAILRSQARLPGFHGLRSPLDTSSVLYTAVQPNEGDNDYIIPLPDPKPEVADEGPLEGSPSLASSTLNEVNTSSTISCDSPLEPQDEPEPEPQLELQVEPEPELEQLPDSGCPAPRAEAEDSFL
# Experimental: as §3, §4
# ULK2 = target: T3, ULK2 (Homo sapiens, UniProt Q8IYT8); assay: KINOMEscan kinase binding assay; details: kinase ULK2 (ULK2)
# T3 construct: purchased Eurofins (KINOMEscan service)
# T3 sequence (Q8IYT8 1-1036): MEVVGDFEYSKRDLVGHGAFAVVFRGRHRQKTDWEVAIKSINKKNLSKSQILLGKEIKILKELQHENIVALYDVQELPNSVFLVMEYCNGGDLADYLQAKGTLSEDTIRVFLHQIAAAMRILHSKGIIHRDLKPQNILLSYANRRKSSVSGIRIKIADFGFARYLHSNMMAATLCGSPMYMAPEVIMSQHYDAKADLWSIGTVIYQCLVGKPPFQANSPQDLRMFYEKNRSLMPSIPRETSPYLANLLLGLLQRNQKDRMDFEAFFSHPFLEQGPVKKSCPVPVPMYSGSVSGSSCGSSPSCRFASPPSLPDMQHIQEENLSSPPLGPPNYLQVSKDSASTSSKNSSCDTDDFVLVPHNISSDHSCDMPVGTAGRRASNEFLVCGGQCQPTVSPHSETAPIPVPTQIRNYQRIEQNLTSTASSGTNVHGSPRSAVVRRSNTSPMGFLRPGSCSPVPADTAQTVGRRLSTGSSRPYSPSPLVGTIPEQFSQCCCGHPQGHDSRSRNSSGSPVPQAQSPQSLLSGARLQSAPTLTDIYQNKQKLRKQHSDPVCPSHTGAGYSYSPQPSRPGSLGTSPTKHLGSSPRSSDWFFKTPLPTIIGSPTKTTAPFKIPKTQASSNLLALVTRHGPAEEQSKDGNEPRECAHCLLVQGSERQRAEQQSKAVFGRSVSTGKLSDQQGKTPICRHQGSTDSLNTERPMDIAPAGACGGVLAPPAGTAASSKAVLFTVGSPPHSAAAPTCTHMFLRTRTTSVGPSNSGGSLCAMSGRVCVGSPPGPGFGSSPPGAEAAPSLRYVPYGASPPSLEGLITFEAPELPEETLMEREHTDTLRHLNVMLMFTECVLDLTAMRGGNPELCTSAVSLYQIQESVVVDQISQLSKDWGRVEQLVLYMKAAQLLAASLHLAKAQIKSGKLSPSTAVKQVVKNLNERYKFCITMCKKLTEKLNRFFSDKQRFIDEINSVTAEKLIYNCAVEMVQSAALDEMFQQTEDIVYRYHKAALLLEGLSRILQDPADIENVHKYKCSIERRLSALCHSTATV
# Experimental: as §3, §4
# PDGFRα = target: T4, PDGFRα (Homo sapiens, UniProt P16234); assay: KINOMEscan kinase binding assay; details: kinase PDGFRA (PDGFRA)
# T4 construct: purchased Eurofins (KINOMEscan service)
# Experimental: as §3, §4
# RET = target: T5, RET (Homo sapiens, UniProt P07949); assay: KINOMEscan kinase binding assay
# T5 construct: purchased Eurofins (KINOMEscan service)
# T5 sequence (P07949 29-1114): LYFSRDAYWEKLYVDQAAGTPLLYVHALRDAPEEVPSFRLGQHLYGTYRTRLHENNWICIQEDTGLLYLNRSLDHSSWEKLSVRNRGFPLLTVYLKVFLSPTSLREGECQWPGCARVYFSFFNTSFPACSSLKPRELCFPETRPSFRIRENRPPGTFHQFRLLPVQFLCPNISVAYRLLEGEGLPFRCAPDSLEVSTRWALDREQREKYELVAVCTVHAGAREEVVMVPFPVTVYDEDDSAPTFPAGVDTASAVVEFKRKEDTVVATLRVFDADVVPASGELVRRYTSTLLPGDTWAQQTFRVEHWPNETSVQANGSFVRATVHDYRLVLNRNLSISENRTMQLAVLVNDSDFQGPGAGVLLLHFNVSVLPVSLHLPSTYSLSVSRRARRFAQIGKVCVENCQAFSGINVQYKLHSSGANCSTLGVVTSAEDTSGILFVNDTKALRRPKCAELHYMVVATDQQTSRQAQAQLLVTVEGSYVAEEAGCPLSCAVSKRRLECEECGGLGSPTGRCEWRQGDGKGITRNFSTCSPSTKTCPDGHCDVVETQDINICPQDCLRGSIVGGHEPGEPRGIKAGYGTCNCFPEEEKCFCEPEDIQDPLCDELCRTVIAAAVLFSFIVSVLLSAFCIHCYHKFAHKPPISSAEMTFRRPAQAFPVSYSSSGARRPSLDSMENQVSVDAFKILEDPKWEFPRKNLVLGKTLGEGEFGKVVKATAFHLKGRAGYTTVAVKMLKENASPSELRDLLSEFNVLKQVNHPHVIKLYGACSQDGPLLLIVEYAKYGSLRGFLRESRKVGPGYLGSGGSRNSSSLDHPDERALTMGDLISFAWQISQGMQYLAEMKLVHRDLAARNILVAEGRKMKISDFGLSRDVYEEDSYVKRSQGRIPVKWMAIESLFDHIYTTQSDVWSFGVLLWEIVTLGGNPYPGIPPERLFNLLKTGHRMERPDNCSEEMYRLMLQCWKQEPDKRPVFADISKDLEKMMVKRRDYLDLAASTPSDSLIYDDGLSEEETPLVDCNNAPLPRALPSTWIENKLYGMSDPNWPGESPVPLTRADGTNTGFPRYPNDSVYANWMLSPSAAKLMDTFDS
# Experimental: as §3, §4
# FLT4 = target: T6, FLT4 (Homo sapiens, UniProt P35916); assay: KINOMEscan kinase binding assay
# T6 construct: purchased Eurofins (KINOMEscan service)
# T6 sequence (P35916 25-1363): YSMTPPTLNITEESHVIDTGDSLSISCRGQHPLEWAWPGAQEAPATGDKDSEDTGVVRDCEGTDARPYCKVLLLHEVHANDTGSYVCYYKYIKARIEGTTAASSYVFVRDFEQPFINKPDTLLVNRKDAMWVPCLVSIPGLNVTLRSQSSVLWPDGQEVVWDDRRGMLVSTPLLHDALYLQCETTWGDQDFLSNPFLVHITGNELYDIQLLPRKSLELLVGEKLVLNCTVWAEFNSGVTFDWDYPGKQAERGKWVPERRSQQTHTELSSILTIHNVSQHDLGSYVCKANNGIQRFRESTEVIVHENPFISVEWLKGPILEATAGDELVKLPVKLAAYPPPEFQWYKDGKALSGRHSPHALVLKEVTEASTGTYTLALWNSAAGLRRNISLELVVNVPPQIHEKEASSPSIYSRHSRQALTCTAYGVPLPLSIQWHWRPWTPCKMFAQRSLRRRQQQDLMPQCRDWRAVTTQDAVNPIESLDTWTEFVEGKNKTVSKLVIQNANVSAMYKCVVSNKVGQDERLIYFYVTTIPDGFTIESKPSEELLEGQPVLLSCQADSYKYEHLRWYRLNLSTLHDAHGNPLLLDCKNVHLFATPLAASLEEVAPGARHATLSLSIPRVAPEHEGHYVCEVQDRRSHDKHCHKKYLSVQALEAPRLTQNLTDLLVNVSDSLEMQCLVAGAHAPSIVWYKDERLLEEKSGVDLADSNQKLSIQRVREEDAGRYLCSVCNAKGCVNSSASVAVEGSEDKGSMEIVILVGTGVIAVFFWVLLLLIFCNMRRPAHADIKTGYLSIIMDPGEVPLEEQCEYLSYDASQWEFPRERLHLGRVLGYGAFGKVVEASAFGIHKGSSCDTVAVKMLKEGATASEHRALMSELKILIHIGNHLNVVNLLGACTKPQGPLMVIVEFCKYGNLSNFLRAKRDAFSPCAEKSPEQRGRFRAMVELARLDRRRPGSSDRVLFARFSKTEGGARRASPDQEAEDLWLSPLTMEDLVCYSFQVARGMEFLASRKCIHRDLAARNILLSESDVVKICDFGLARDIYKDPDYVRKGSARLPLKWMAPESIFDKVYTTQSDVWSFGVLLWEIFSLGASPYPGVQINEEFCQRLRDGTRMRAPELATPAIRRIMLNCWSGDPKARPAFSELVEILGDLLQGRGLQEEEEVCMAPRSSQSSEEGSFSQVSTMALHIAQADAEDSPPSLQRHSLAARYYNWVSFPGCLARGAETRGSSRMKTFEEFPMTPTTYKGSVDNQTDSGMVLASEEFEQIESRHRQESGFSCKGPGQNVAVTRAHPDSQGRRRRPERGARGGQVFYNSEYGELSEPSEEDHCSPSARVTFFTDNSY
# Experimental: as §3, §4
# KIT = target: T7, KIT (Homo sapiens, UniProt P10721); assay: KINOMEscan kinase binding assay; details: kinase KIT
# T7 construct: purchased Eurofins (KINOMEscan service)
# Experimental: as §3, §4
# FLT1 = target: T8, FLT1 (Homo sapiens, UniProt P17948); assay: KINOMEscan kinase binding assay
# T8 construct: purchased Eurofins (KINOMEscan service)
# T8 sequence (P17948 27-1338): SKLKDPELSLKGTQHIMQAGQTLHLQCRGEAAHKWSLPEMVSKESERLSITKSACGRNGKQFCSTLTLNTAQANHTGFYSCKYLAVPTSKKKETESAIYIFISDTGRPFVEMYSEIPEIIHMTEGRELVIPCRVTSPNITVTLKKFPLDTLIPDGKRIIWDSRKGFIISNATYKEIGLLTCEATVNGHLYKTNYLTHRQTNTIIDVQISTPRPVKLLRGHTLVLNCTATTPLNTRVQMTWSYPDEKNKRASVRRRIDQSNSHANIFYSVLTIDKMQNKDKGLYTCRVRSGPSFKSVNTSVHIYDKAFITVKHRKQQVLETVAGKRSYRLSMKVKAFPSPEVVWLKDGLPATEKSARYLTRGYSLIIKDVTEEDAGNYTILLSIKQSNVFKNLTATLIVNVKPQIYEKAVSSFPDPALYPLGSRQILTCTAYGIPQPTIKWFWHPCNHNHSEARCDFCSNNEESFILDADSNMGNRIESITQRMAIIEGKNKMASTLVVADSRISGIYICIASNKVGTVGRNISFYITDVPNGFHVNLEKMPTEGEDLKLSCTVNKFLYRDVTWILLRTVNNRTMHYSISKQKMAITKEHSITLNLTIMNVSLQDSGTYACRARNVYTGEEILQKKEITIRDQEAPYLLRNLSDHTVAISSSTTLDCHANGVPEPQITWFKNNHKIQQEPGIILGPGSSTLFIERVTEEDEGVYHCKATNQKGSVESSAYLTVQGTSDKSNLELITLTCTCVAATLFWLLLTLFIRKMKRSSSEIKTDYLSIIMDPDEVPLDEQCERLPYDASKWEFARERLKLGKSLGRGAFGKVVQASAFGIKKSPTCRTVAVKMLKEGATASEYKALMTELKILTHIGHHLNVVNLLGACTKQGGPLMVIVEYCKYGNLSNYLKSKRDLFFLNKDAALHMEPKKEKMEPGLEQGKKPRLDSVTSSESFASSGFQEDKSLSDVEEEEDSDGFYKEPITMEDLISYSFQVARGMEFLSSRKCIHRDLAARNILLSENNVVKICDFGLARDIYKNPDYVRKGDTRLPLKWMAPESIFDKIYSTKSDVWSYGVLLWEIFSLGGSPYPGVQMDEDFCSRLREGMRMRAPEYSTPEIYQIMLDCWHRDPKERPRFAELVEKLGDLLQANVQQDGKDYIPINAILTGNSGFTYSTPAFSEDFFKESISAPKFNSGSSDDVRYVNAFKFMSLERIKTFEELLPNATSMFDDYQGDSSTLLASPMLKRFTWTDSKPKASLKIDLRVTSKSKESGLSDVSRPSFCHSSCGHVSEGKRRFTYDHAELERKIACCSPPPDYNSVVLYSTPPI
# Experimental: as §3, §4
# CSF1R/FMS = target: T9, CSF1R/FMS (Homo sapiens, UniProt P07333); assay: KINOMEscan kinase binding assay
# T9 construct: purchased Eurofins (KINOMEscan service)
# Experimental: as §3, §4
# KDR/VEGFR2 = target: T10, KDR/VEGFR2 (Homo sapiens, UniProt P35968); assay: KINOMEscan kinase binding assay
# T10 construct: purchased Eurofins (KINOMEscan service)
# Experimental: as §3, §4
# MV4-11 tumors = assay: MV4-11 xenograft mouse model; details: Figure 3B
# MOLM-14-MR2 cells = assay: cells; details: Homo sapiens, 72 h, read-out: IC50, cell viability
# FLT3 signaling = assay: FLT3 inhibitor washout experiment in MOLM-14 cells; assay type: cell-based, human
# MOLM-14-MR2 tumors = assay: MOLM-14-MR2 xenograft mouse model; assay type: in vivo; details: MOLM-14-MR2 tumors (NRAS mutated), oral once per day
# MOLM-13-QR cells = assay: cells; details: Homo sapiens, read-out: IC50, cell viability
# MOLM-14-MR cells = assay: cells; details: Homo sapiens, 72 h, read-out: IC50, cell viability
# [1] = test system: midostaurin-resistant MOLM-14 cells; assay: cells; details: Homo sapiens, MOLM-14, read-out: IC50 against midostaurin-resistant MOLM-14 cells
# MOLM-13-QR2 cells = assay: cells; details: Homo sapiens, read-out: IC50, cell viability
smiles,measurement,setting,value
"CCc1nc(C(N)=O)c(Nc2ccc(N3CCC(N4CCN(C)CC4)CC3)c(OC)c2)nc1NC1CCOCC1 [Gilteritinib, gilteritinib]",IC50,MV4-11 cells,0.00201 µM
same,IC50,Kasumi-1 cells,0.16 µM
same,IC50,"MOLM-13 cells; 72 h, MOLM-13, FLT3-ITD, 3 days, Supplementary Table 3",0.01 µM
same,IC50,"MOLM-13 cells; parental MOLM-13, FLT3-ITD, Supplementary Table 4",0.00789 µM
same,IC50,HL-60 cells,0.391 µM
same,IC50,OCI-AML3 cells,1.42 µM
same,IC50,EOL-1 cells,0.0309 µM
same,IC50,THP-1 cells,1.53 µM
same,IC50,"MOLM-14 cells; MOLM-14, FLT3-ITD, Supplementary Table 3",0.00741 µM
same,IC50,"MOLM-14 cells; parental MOLM-14, FLT3-ITD, Figure 4B",0.00787 µM
same,Kd,MEK5,0.0078 µM
same,Kd,PDGFRβ,0.24 µM
same,Kd,ULK2,0.7 µM
same,Kd,PDGFRα,0.053 µM
same,Kd,RET,0.011 µM
same,Kd,FLT4,0.15 µM
same,Kd,KIT,0.086 µM
same,Kd,FLT1,0.38 µM
same,Kd,CSF1R/FMS,0.046 µM
same,Kd,KDR/VEGFR2,0.1 µM
same,TGI,MV4-11 tumors; 1 mg/kg oral once per day,48%
same,TGI,MV4-11 tumors; 3 mg/kg oral once per day,82%
same,TGI,MV4-11 tumors; 10 mg/kg oral once per day,100%
same,"EC90, tumor growth inhibition",MV4-11 tumors; oral once per day,5.06 mg/kg
same,IC50,MOLM-14-MR2 cells,0.0291 µM
same,Durability of inhibition of FLT3 and ERK phosphorylation after removal of inhibitor,FLT3 signaling,no significant inhibitory activity starting 1 hour after removal
same,Long-term durability of inhibition of FLT3 signaling after compound withdrawal,FLT3 signaling,no longer able to inhibit FLT3 signaling at 24 hours
same,"EC50, tumor growth inhibition",MOLM-14-MR2 tumors,> 10 mg/kg
same,IC50,MOLM-13-QR cells,0.00968 µM
same,IC50,MOLM-14-MR cells,0.0493 µM
same,IC50,[1],0.0291 to 0.0493 µM
same,IC50,MOLM-13-QR2 cells,0.043 µM
